Measured values taken from patent US9738634B2, “Heterocyclic amide compound and herbicide” (SYNGENTA PARTICIPATIONS AG, priority 2013, dated 2017).

Tests used:
Format in all cases: in vivo
wheat [1] = test: Test Example 4: foliar treatment, effect on crop; e: wheat; conditions: treatment dosage 315 g/ha
Method in brief: (§1)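 Seeds are spot-sown into sterilized diluvial soil and covered with about 1.5 cm of soil. After 14 days' greenhouse growth at 25 to 30° C, plants are sprayed on stems and leaves with diluted emulsion at the stated g/ha rate, then scored at 3 weeks.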

bulrush [2] = test: Test Example 1: weedkilling efficacy, preemergent weed treatment in the submerged state; B: bulrush; conditions: treatment dosage 252 g/ha
Method in brief: (§2)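 Submerged pre-emergence treatment, water-surface application of compound emulsion at g/ha dosages; 4 cm flooded alluvial soil, weeds sown and 2.5-leaf rice transplanted same day. Rated after 3 weeks, greenhouse.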

crabgrass [3] = test: Test Example 3: weedkilling efficacy through soil treatment; D: crabgrass; conditions: treatment dosage 315 g/ha
Method in brief: (§3)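 Crop and weed responses were judged three weeks after a uniform surface spray of the water-diluted emulsion at the given g/ha rate. Seeds sat beneath about 1.5 cm of sterilized diluvial soil, and boxes stood in a greenhouse at 25 to 30° C.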

oval-leafed pondweed [4] = test: Test Example 2: weedkilling efficacy, growth period weed treatment in the submerged state; C: oval-leafed pondweed; conditions: treatment dosage 252 g/ha
Method in brief: (§4)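 Seedlings at 1-2 leaves in 4 cm-deep submerged alluvial soil received emulsion formulations on the water surface, dosed per hectare; effects were judged 3 weeks on.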

beet [5] = test: Test Example 4: foliar treatment, effect on crop; f: beet; conditions: treatment dosage 315 g/ha
Method in brief: as §1

corn [6] = test: Test Example 3: soil treatment, effect on crop; c: corn; conditions: treatment dosage 315 g/ha
Method in brief: as §3

fig-leafed goosefoot [7] = test: Test Example 3: weedkilling efficacy through soil treatment; M: fig-leafed goosefoot; conditions: treatment dosage 315 g/ha
Method in brief: as §3

transplanted rice = test: Test Example 1: preemergent weed treatment in the submerged state, effect on crop; a: transplanted rice; conditions: treatment dosage 252 g/ha
Method in brief: as §2

barnyard grass [8] = test: Test Example 1: weedkilling efficacy, preemergent weed treatment in the submerged state; A: barnyard grass; conditions: treatment dosage 252 g/ha
Method in brief: as §2

corn [9] = test: Test Example 4: foliar treatment, effect on crop; c: corn; conditions: treatment dosage 315 g/ha
Method in brief: as §1

chickweed [10] = test: Test Example 4: weedkilling efficacy by foliar treatment; N: chickweed; conditions: treatment dosage 315 g/ha
Method in brief: as §1

beet [11] = test: Test Example 3: soil treatment, effect on crop; f: beet; conditions: treatment dosage 315 g/ha
Method in brief: as §3

green foxtail [12] = test: Test Example 3: weedkilling efficacy through soil treatment; E: green foxtail; conditions: treatment dosage 315 g/ha
Method in brief: as §3

wild oat = test: Test Example 3: weedkilling efficacy through soil treatment; G: wild oat; conditions: treatment dosage 315 g/ha
Method in brief: as §3

Italian ryegrass [13] = test: Test Example 4: weedkilling efficacy by foliar treatment; I: Italian ryegrass; conditions: treatment dosage 315 g/ha
Method in brief: as §1

chickweed [14] = test: Test Example 3: weedkilling efficacy through soil treatment; N: chickweed; conditions: treatment dosage 315 g/ha
Method in brief: as §3

barnyard grass [15] = test: Test Example 2: weedkilling efficacy, growth period weed treatment in the submerged state; A: barnyard grass; conditions: treatment dosage 252 g/ha
Method in brief: as §4

Indian mallow [16] = test: Test Example 4: weedkilling efficacy by foliar treatment; K: Indian mallow; conditions: treatment dosage 315 g/ha
Method in brief: as §1

black-grass [17] = test: Test Example 3: weedkilling efficacy through soil treatment; H: black-grass; conditions: treatment dosage 315 g/ha
Method in brief: as §3

birds-eye speedwell [18] = test: Test Example 4: weedkilling efficacy by foliar treatment; p: birds-eye speedwell; conditions: treatment dosage 315 g/ha
Method in brief: as §1

redroot pigweed [19] = test: Test Example 4: weedkilling efficacy by foliar treatment; L: redroot pigweed; conditions: treatment dosage 315 g/ha
Method in brief: as §1

soybean [20] = test: Test Example 3: soil treatment, effect on crop; d: soybean; conditions: treatment dosage 315 g/ha
Method in brief: as §3

birds-eye speedwell [21] = test: Test Example 3: weedkilling efficacy through soil treatment; p: birds-eye speedwell; conditions: treatment dosage 315 g/ha
Method in brief: as §3

oval-leafed pondweed [22] = test: Test Example 1: weedkilling efficacy, preemergent weed treatment in the submerged state; C: oval-leafed pondweed; conditions: treatment dosage 252 g/ha
Method in brief: as §2

wheat [23] = test: Test Example 3: soil treatment, effect on crop; e: wheat; conditions: treatment dosage 315 g/ha
Method in brief: as §3

catchweed = test: Test Example 4: weedkilling efficacy by foliar treatment; O: catchweed; conditions: treatment dosage 315 g/ha
Method in brief: as §1

redroot pigweed [24] = test: Test Example 3: weedkilling efficacy through soil treatment; L: redroot pigweed; conditions: treatment dosage 315 g/ha
Method in brief: as §3

soybean [25] = test: Test Example 4: foliar treatment, effect on crop; d: soybean; conditions: treatment dosage 315 g/ha
Method in brief: as §1

bulrush [26] = test: Test Example 2: weedkilling efficacy, growth period weed treatment in the submerged state; B: bulrush; conditions: treatment dosage 252 g/ha
Method in brief: as §4

directly sown rice [27] = test: Test Example 3: soil treatment, effect on crop; b: directly sown rice; conditions: treatment dosage 315 g/ha
Method in brief: as §3

crabgrass [28] = test: Test Example 4: weedkilling efficacy by foliar treatment; D: crabgrass; conditions: treatment dosage 315 g/ha
Method in brief: as §1

directly sown rice [29] = test: Test Example 4: foliar treatment, effect on crop; b: directly sown rice; conditions: treatment dosage 315 g/ha
Method in brief: as §1

fig-leafed goosefoot [30] = test: Test Example 4: weedkilling efficacy by foliar treatment; M: fig-leafed goosefoot; conditions: treatment dosage 315 g/ha
Method in brief: as §1

Italian ryegrass [31] = test: Test Example 3: weedkilling efficacy through soil treatment; I: Italian ryegrass; conditions: treatment dosage 315 g/ha
Method in brief: as §3

black-grass [32] = test: Test Example 4: weedkilling efficacy by foliar treatment; H: black-grass; conditions: treatment dosage 315 g/ha
Method in brief: as §1

green foxtail [33] = test: Test Example 4: weedkilling efficacy by foliar treatment; E: green foxtail; conditions: treatment dosage 315 g/ha
Method in brief: as §1

Indian mallow [34] = test: Test Example 3: weedkilling efficacy through soil treatment; K: Indian mallow; conditions: treatment dosage 315 g/ha
Method in brief: as §3

Row | Structure (SMILES) | e (wheat) effect on crop grade (wheat [1]) | B (bulrush) weedkilling efficacy grade (bulrush [2]) | D (crabgrass) weedkilling efficacy grade (crabgrass [3]) | C (oval-leafed pondweed) weedkilling efficacy grade (oval-leafed pondweed [4]) | f (beet) effect on crop grade (beet [5]) | c (corn) effect on crop grade (corn [6]) | M (fig-leafed goosefoot) weedkilling efficacy grade (fig-leafed goosefoot [7]) | a (transplanted rice) effect on crop grade (transplanted rice) | A (barnyard grass) weedkilling efficacy grade (barnyard grass [8]) | c (corn) effect on crop grade (corn [9]) | N (chickweed) weedkilling efficacy grade (chickweed [10]) | f (beet) effect on crop grade (beet [11]) | E (green foxtail) weedkilling efficacy grade (green foxtail [12]) | G (wild oat) weedkilling efficacy grade (wild oat) | I (Italian ryegrass) weedkilling efficacy grade (Italian ryegrass [13]) | N (chickweed) weedkilling efficacy grade (chickweed [14]) | A (barnyard grass) weedkilling efficacy grade (barnyard grass [15]) | K (Indian mallow) weedkilling efficacy grade (Indian mallow [16]) | H (black-grass) weedkilling efficacy grade (black-grass [17]) | P (birds-eye speedwell) weedkilling efficacy grade (birds-eye speedwell [18]) | other results
1 | CSc1nsc(NC(=O)C(C)(C)N2COC(C)=C(c3ccsc3)C2=O)n1 [B-1-05] | 0 (weed kill ratio 5% or less (practically no effect)) | 5 (weed kill ratio 90% or more, (practically complete withering)) | 5 (weed kill ratio 90% or more, (practically complete withering)) | 5 (weed kill ratio 90% or more, (practically complete withering)) | 4 (weed kill ratio 70% or more, less than 90%) | 1 (weed kill ratio 5% or more, less than 20%) | 5 (weed kill ratio 90% or more, (practically complete withering)) | 4 (weed kill ratio 70% or more, less than 90%) | 5 (weed kill ratio 90% or more, (practically complete withering)) | 2 (weed kill ratio 20% or more, less than 40%) | 4 (weed kill ratio 70% or more, less than 90%) | 5 (weed kill ratio 90% or more, (practically complete withering)) | 5 (weed kill ratio 90% or more, (practically complete withering)) | 5 (weed kill ratio 90% or more, (practically complete withering)) | 4 (weed kill ratio 70% or more, less than 90%) | 4 (weed kill ratio 70% or more, less than 90%) | 5 (weed kill ratio 90% or more, (practically complete withering)) | 5 (weed kill ratio 90% or more, (practically complete withering)) | 5 (weed kill ratio 90% or more, (practically complete withering)) | 5 (weed kill ratio 90% or more, (practically complete withering)) | L (redroot pigweed) weedkilling efficacy grade (redroot pigweed [19]): 5 (weed kill ratio 90% or more, (practically complete withering)); d (soybean) effect on crop grade (soybean [20]): 0 (weed kill ratio 5% or less (practically no effect)); P (birds-eye speedwell) weedkilling efficacy grade (birds-eye speedwell [21]): 5 (weed kill ratio 90% or more, (practically complete withering)); C (oval-leafed pondweed) weedkilling efficacy grade (oval-leafed pondweed [22]): 5 (weed kill ratio 90% or more, (practically complete withering)); e (wheat) effect on crop grade (wheat [23]): 0 (weed kill ratio 5% or less (practically no effect)); O (catchweed) weedkilling efficacy grade (catchweed): 4 (weed kill ratio 70% or more, less than 90%); L (redroot pigweed) weedkilling efficacy grade (redroot pigweed [24]): 4 (weed kill ratio 70% or more, less than 90%); d (soybean) effect on crop grade (soybean [25]): 0 (weed kill ratio 5% or less (practically no effect)); B (bulrush) weedkilling efficacy grade (bulrush [26]): 5 (weed kill ratio 90% or more, (practically complete withering)); b (directly sown rice) effect on crop grade (directly sown rice [27]): 5 (weed kill ratio 90% or more, (practically complete withering)); D (crabgrass) weedkilling efficacy grade (crabgrass [28]): 5 (weed kill ratio 90% or more, (practically complete withering)); b (directly sown rice) effect on crop grade (directly sown rice [29]): 4 (weed kill ratio 70% or more, less than 90%); M (fig-leafed goosefoot) weedkilling efficacy grade (fig-leafed goosefoot [30]): 5 (weed kill ratio 90% or more, (practically complete withering)); I (Italian ryegrass) weedkilling efficacy grade (Italian ryegrass [31]): 0 (weed kill ratio 5% or less (practically no effect)); H (black-grass) weedkilling efficacy grade (black-grass [32]): 5 (weed kill ratio 90% or more, (practically complete withering)); E (green foxtail) weedkilling efficacy grade (green foxtail [33]): 5 (weed kill ratio 90% or more, (practically complete withering)); K (Indian mallow) weedkilling efficacy grade (Indian mallow [34]): 4 (weed kill ratio 70% or more, less than 90%)
2 | CC1=C(c2ccsc2)C(=O)N(C(C)(C)C(=O)Nc2cccc(F)n2)CO1 [B-2-04] | 5 (weed kill ratio 90% or more, (practically complete withering)) | 5 (weed kill ratio 90% or more, (practically complete withering)) | 5 (weed kill ratio 90% or more, (practically complete withering)) | 5 (weed kill ratio 90% or more, (practically complete withering)) | 5 (weed kill ratio 90% or more, (practically complete withering)) | 1 (weed kill ratio 5% or more, less than 20%) | 5 (weed kill ratio 90% or more, (practically complete withering)) | 3 (weed kill ratio 40% or more, less than 70%) | 5 (weed kill ratio 90% or more, (practically complete withering)) | 3 (weed kill ratio 40% or more, less than 70%) | 4 (weed kill ratio 70% or more, less than 90%) | 5 (weed kill ratio 90% or more, (practically complete withering)) | 5 (weed kill ratio 90% or more, (practically complete withering)) | 5 (weed kill ratio 90% or more, (practically complete withering)) | 5 (weed kill ratio 90% or more, (practically complete withering)) | 5 (weed kill ratio 90% or more, (practically complete withering)) | 5 (weed kill ratio 90% or more, (practically complete withering)) | 5 (weed kill ratio 90% or more, (practically complete withering)) | 5 (weed kill ratio 90% or more, (practically complete withering)) | 5 (weed kill ratio 90% or more, (practically complete withering)) | L (redroot pigweed) weedkilling efficacy grade (redroot pigweed [19]): 5 (weed kill ratio 90% or more, (practically complete withering)); d (soybean) effect on crop grade (soybean [20]): 0 (weed kill ratio 5% or less (practically no effect)); P (birds-eye speedwell) weedkilling efficacy grade (birds-eye speedwell [21]): 5 (weed kill ratio 90% or more, (practically complete withering)); C (oval-leafed pondweed) weedkilling efficacy grade (oval-leafed pondweed [22]): 5 (weed kill ratio 90% or more, (practically complete withering)); e (wheat) effect on crop grade (wheat [23]): 5 (weed kill ratio 90% or more, (practically complete withering)); O (catchweed) weedkilling efficacy grade (catchweed): 4 (weed kill ratio 70% or more, less than 90%); L (redroot pigweed) weedkilling efficacy grade (redroot pigweed [24]): 4 (weed kill ratio 70% or more, less than 90%); d (soybean) effect on crop grade (soybean [25]): 4 (weed kill ratio 70% or more, less than 90%); B (bulrush) weedkilling efficacy grade (bulrush [26]): 5 (weed kill ratio 90% or more, (practically complete withering)); b (directly sown rice) effect on crop grade (directly sown rice [27]): 5 (weed kill ratio 90% or more, (practically complete withering)); D (crabgrass) weedkilling efficacy grade (crabgrass [28]): 5 (weed kill ratio 90% or more, (practically complete withering)); b (directly sown rice) effect on crop grade (directly sown rice [29]): 5 (weed kill ratio 90% or more, (practically complete withering)); M (fig-leafed goosefoot) weedkilling efficacy grade (fig-leafed goosefoot [30]): 5 (weed kill ratio 90% or more, (practically complete withering)); I (Italian ryegrass) weedkilling efficacy grade (Italian ryegrass [31]): 5 (weed kill ratio 90% or more, (practically complete withering)); H (black-grass) weedkilling efficacy grade (black-grass [32]): 5 (weed kill ratio 90% or more, (practically complete withering)); E (green foxtail) weedkilling efficacy grade (green foxtail [33]): 5 (weed kill ratio 90% or more, (practically complete withering)); K (Indian mallow) weedkilling efficacy grade (Indian mallow [34]): 4 (weed kill ratio 70% or more, less than 90%)
